Assay results from PubChem BioAssay AID1918944 (Molecular Pharmacology Branch, DTP, NCI, 2023).
Where “and” joins values, the source holds several entries; their conditions need not be identical. Identical values can stand only once.

Tested on: 786-0 complex spheroid viability
Assay: Anticancer human tumor 786-0 cell line growth inhibition;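 note: spheroids exposed to agents for seven days before readout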
Conditions: for viability, T/C: stronger effect = lower value; active = viability on the fitted dose curve at most 10% of control; inactive = the rest
Source text: Multicellular complex tumor spheroid response to LSD1 Inhibitor Iadademstat in combination with a variety of drugs and investigational agents in selected tumor cell lines
The current study was undertaken to assess response to LSD1 inhibitors in combination with standard-of-care drugs and investigational agents in solid tumor complex spheroid models as well as in the K-562 leukemia. Complex spheroids include a stromal component modeled by human endothelial cells (HUVEC) and fibroblasts modeled by human mesenchymal stem cells (MSCs). The concentration ranges selected for each drug and investigational agent were based upon clinically achievable concentrations if the clinical Cmax of the agent was known.
Compounds. The drugs and investigational agents used in this study are listed on Table 1. All of the agents used, including staurosporine (NSC755774) and gemcitabine (NSC613327), were obtained from the Developmental Therapeutics Program, NCI. FDA-approved anticancer drugs are available from the NCI at http://dtp.nci.nih.gov/branches/dscb/oncology_drugset_explanation.html. Drugs and investigational agents were >95% pure by proton nuclear magnetic resonance (NMR) and liquid chromatography/mass spectrometry (LC/MS). Stock solutions were prepared at 400x in DMSO, stored at -70 degrees C, and diluted in fresh medium prior to their use. The final concentration of DMSO in cell culture wells never exceeded 0.25% (v/v). The FDA-approved anticancer drug set is available from the Developmental Therapeutics Program at https://dtp.cancer.gov/organization/dscb/obtaining/available_plates.htm. All drugs and investigational agents were tested over a range starting from a high concentration at or near the clinical Cmax and decreasing in half-log increments. If the clinical Cmax for an agent had not been determined, the highest concentration tested was 10 microM.
Cell Lines. The patient-derived cancer cell (PDC) lines: 292921-168-R-J2-PDC, K24384-001-R-PDC, and 521955-158-R2-J5-PDC pancreatic carcinomas, 556581-035-R-J1 ovarian carcinoma, 324938-238-R-J1-PDC, 855422-203-R-J1-PDC and 883617-216-R-J1-PDC urothelial bladder carcinomas, 743489-274-T-PDC renal cell carcinoma, 138582-R-J1 Merkel cell tumor, K60290-347-R-J1 and K57222-313-R-J1-PDC glioblastomas, 653999-131-R-J2-PDC, LG0703-F948-PDC, and 349418-098-R-PDC non-small cell lung carcinomas, 885512-296-R-J2-PDC, 171881-019-R-J1-PDC breast carcinomas and 186277-243-T-J2-PDC and 233499-124-R-J2-PDC colon carcinomas were obtained from the NCI Patient-Derived Models Repository (PDMR, https://pdmr.cancer.gov). The established cell lines NCI/ADR-RES (RRID:CVCL_14520 and OVCAR-5 (RRID:CVCL_1628) ovarian carcinomas, 786-O (RRID:CVCL_1051) and A498 (RRID:CVCL_A498) renal cell carcinoma, NCI-H211 (ATCC, cat. CRL-5824; RRID:CVCL_1529), NCI-H196 (ATCC, cat. CRL-5823, RRID:CVCL_1509), SW 1271 (ATCC, cat. CRL-2177, RRID:CVCL_1716) and NCI-H1876 (ATCC, cat. CRL-5902, RRID:CVCL_1503) small cell lung carcinomas, MDA-MB-231 (RRID:CVCL_0062) and MDA-MB-468 (RRID:CVCL_0419)breast carcinomas (10-12). Pooled donor human umbilical vein endothelial cells (HUVEC, Lonza, cat. CC-2519) and human mesenchymal stem cells (hMSC, Lonza, cat. PT-2501) were purchased from Lonza (Walkersville, MD).
Cell Culture. All cells were maintained in an incubator at 37 degrees C and 5% CO2 with 95% humidity. The PDC lines were cultured according to standard operating procedures established by the NCI PDMR (https://pdmr.cancer.gov). Briefly all PDCs were thawed and cultured in Matrigel-coated flasks prepared with a working solution of 1X Ham's F-12 nutrient mix, without supplementation (Invitrogen, Waltham, MA, cat. 11765054), 100 U/mL penicillin-streptomycin (Invitrogen, cat. 15140122), and 2.5% Matrigel (Corning Inc., Corning, NY, cat. 354248) for the first three passages. […]

[1] = curve of first compound, second compound 0.1 µM
[2] = curve of first compound, second compound 0.316 µM
[3] = curve of first compound, second compound 1 µM
[4] = curve of first compound, second compound 3.16 µM
[5] = curve of first compound, second compound 10 µM
[6] = second compound 0.1 µM, first compound 0.0316 µM
[7] = second compound 0.1 µM, first compound 0.1 µM
[8] = second compound 0.1 µM, first compound 0.316 µM
[9] = second compound 0.1 µM, first compound 1 µM
[10] = second compound 0.316 µM, first compound 0.0316 µM
[11] = second compound 0.316 µM, first compound 0.1 µM
[12] = second compound 0.316 µM, first compound 0.316 µM
[13] = second compound 0.316 µM, first compound 1 µM
[14] = second compound 1 µM, first compound 0.0316 µM
[15] = second compound 1 µM, first compound 0.1 µM
[16] = second compound 1 µM, first compound 0.316 µM
[17] = second compound 1 µM, first compound 1 µM
[18] = second compound 3.16 µM, first compound 0.0316 µM
[19] = second compound 3.16 µM, first compound 0.1 µM
[20] = second compound 3.16 µM, first compound 0.316 µM
[21] = second compound 3.16 µM, first compound 1 µM
[22] = second compound 10 µM, first compound 0.0316 µM
[23] = second compound 10 µM, first compound 0.1 µM
[24] = second compound 10 µM, first compound 0.316 µM
[25] = second compound 10 µM, first compound 1 µM
[26] = second compound 0.1 µM, first compound 0.00316 µM
[27] = second compound 0.1 µM, first compound 0.01 µM
[28] = second compound 0.316 µM, first compound 0.00316 µM
[29] = second compound 0.316 µM, first compound 0.01 µM
[30] = second compound 1 µM, first compound 0.00316 µM
[31] = second compound 1 µM, first compound 0.01 µM
[32] = second compound 3.16 µM, first compound 0.00316 µM
[33] = second compound 3.16 µM, first compound 0.01 µM
[34] = second compound 10 µM, first compound 0.00316 µM
[35] = second compound 10 µM, first compound 0.01 µM

CC1(C)CCC(CN2CCN(c3ccc(C(=O)NS(=O)(=O)c4ccc(NCC5CCOCC5)c([N+](=O)[O-])c4)c(Oc4cnc5[nH]ccc5c4)c3)CC2)=C(c2ccc(Cl)cc2)C1 + NC1CCC(NC2CC2c2ccccc2)CC1
9290 nM: IC50 [4]
inactive: viability, T/C [6] 113% | viability, T/C [7] 117% | viability, T/C [8] 110% | viability, T/C [9] 116% | viability, T/C (second compound 0.1 µM, first compound 3.16 µM) 103% | viability, T/C (second compound 0.1 µM, first compound 10 µM) 68.1% | viability, T/C [10] 117% | viability, T/C [11] 121% | viability, T/C [12] 120% | viability, T/C [13] 120% | viability, T/C (second compound 0.316 µM, first compound 3.16 µM) 106% | viability, T/C (second compound 0.316 µM, first compound 10 µM) 67.1% | viability, T/C [14] 116% | viability, T/C [15] 116% | viability, T/C [16] 118% | viability, T/C [17] 108% | viability, T/C (second compound 1 µM, first compound 3.16 µM) 104% | viability, T/C (second compound 1 µM, first compound 10 µM) 58.3% | viability, T/C [18] 110% | viability, T/C [19] 109% | viability, T/C [20] 107% | viability, T/C [21] 96% | viability, T/C (second compound 3.16 µM, first compound 3.16 µM) 85.3% | viability, T/C (second compound 3.16 µM, first compound 10 µM) 47.4% | viability, T/C [22] 90.2% | viability, T/C [23] 94.6% | viability, T/C [24] 89.3% | viability, T/C [25] 74.1% | viability, T/C (second compound 10 µM, first compound 3.16 µM) 63.2% | viability, T/C (second compound 10 µM, first compound 10 µM) 41.8%
6260 nM: IC50 [5]
> 10000 nM: IC50 [1] | IC50 [2] | IC50 [3]

O=C(C=Cn1cnc(-c2cc(C(F)(F)F)cc(C(F)(F)F)c2)n1)NNc1cnccn1 + NC1CCC(NC2CC2c2ccccc2)CC1
16.4 nM: IC50 [4]
22.7 nM: IC50 [3]
25.4 nM: IC50 [1]
11.9 nM: IC50 [5]
inactive: viability, T/C [26] 94.3% | viability, T/C [27] 68.9% | viability, T/C [6] 44.6% | viability, T/C [7] 31.8% | viability, T/C [8] 21% | viability, T/C [9] 17.9% | viability, T/C [28] 97.4% | viability, T/C [29] 61.9% | viability, T/C [10] 42.1% | viability, T/C [11] 30.7% | viability, T/C [12] 21.2% | viability, T/C [13] 18.6% | viability, T/C [30] 90.8% | viability, T/C [31] 63.4% | viability, T/C [14] 42.6% | viability, T/C [15] 34.4% | viability, T/C [16] 21.6% | viability, T/C [17] 15.7% | viability, T/C [32] 81% | viability, T/C [33] 51.6% | viability, T/C [18] 43.6% | viability, T/C [19] 31.7% | viability, T/C [20] 20.8% | viability, T/C [21] 14.9% | viability, T/C [34] 74% | viability, T/C [35] 48.3% | viability, T/C [22] 37.5% | viability, T/C [23] 35.1% | viability, T/C [24] 19.9% | viability, T/C [25] 16.9%
20.2 nM: IC50 [2]

Nc1ccccc1NC(=O)c1ccc(CNC(=O)OCc2cccnc2)cc1
inactive: viability, T/C (compound 0.00949 µM) 98.3% and 104% | viability, T/C (compound 0.03 µM) 103% and 113% | viability, T/C (compound 0.0949 µM) 102% and 108% | viability, T/C (compound 0.3 µM) 93.9% and 93.5% | viability, T/C (compound 0.949 µM) 68% and 73.5% | viability, T/C (compound 3 µM) 14.8% and 23%
1400 nM and 1610 nM: IC50 (curve of compound)

CC(C)CC(NC(=O)CNC(=O)c1cc(Cl)ccc1Cl)B1OC(=O)CC(CC(=O)O)(C(=O)O)O1 (centres undefined)
11.5 nM and 17.9 nM: IC50 (curve of compound)
inactive: viability, T/C (compound 0.000316 µM) 108% and 107% | viability, T/C (compound 0.001 µM) 106% and 104% | viability, T/C (compound 0.00316 µM) 102% and 106% | viability, T/C (compound 0.01 µM) 49.1% and 64.2% | viability, T/C (compound 0.0316 µM) 30.4% and 36.4% | viability, T/C (compound 0.1 µM) 7.53% and 16.1%

CC(C)CC(NC(=O)CNC(=O)c1cc(Cl)ccc1Cl)B1OC(=O)CC(CC(=O)O)(C(=O)O)O1 (centres undefined) + NC1CC1c1ccc(-c2cccc(O)c2)cc1
14.8 nM: IC50 [2]
14.7 nM: IC50 [3]
9.46 nM: IC50 [5]
13.3 nM: IC50 [4]
14.1 nM: IC50 [1]
inactive: viability, T/C (second compound 0.1 µM, first compound 0.000316 µM) 95.1% | viability, T/C (second compound 0.1 µM, first compound 0.001 µM) 106% | viability, T/C [26] 93.2% | viability, T/C [27] 55.9% | viability, T/C [6] 33.5% | viability, T/C [7] 16.6% | viability, T/C (second compound 0.316 µM, first compound 0.000316 µM) 111% | viability, T/C (second compound 0.316 µM, first compound 0.001 µM) 106% | viability, T/C [28] 97.7% | viability, T/C [29] 59.3% | viability, T/C [10] 30.5% | viability, T/C [11] 17.1% | viability, T/C (second compound 1 µM, first compound 0.000316 µM) 101% | viability, T/C (second compound 1 µM, first compound 0.001 µM) 102% | viability, T/C [30] 90.5% | viability, T/C [31] 57.6% | viability, T/C [14] 33.2% | viability, T/C [15] 17.4% | viability, T/C (second compound 3.16 µM, first compound 0.000316 µM) 88.6% | viability, T/C (second compound 3.16 µM, first compound 0.001 µM) 100% | viability, T/C [32] 88.1% | viability, T/C [33] 54.6% | viability, T/C [18] 31.4% | viability, T/C [19] 15.6% | viability, T/C (second compound 10 µM, first compound 0.000316 µM) 88% | viability, T/C (second compound 10 µM, first compound 0.001 µM) 89.5% | viability, T/C [34] 84% | viability, T/C [35] 45.4% | viability, T/C [22] 27.4% | viability, T/C [23] 12.4%
